Results: ChEMBL document CHEMBL5724914, “Linking interpersonal differences in gut microbiota composition and drug biotransformation activity” (2024)

Experiments:
[1] = (§1) The drug is tested on Z-024 corresponding to pig gut metagenome with ENA study accession number: PRJEB37062 and ENA sample accession number: ERS12561823 for biotransformation under anaerobic condition. The drug concentrations were measured over 9 timepoints collected between 0 and 24 hours of incubation by liquid-chromatography-coupled mass spectrometry (LC–MS); details: 2 µM
[2] = human gut metagenome, 24 h, 2 µM
[3] = as §1, with “Z-002” for “Z-024”, “rabbit” for “pig”, “ERS12561802” for “ERS12561823”; details: 2 µM
[4] = human gut metagenome, 24 h, 2 µM; remark: listed apart in the source
[5] = human gut metagenome, 24 h, 2 µM; remark: listed apart in the source
[6] = as §1, with “WLS-350” for “Z-024”, “human” for “pig”, “ERS12561789” for “ERS12561823”; details: 2 µM
[7] = as §1, with “Z-020” for “Z-024”, “rabbit” for “pig”, “ERS12561819” for “ERS12561823”; details: 2 µM
[8] = human gut metagenome, 24 h, 2 µM; remark: listed apart in the source
[9] = as §1, with “WLS-039” for “Z-024”, “human” for “pig”, “ERS12561746” for “ERS12561823”; details: 2 µM
[10] = human gut metagenome, 24 h, 2 µM; remark: listed apart in the source
[11] = human gut metagenome, 24 h, 2 µM; remark: listed apart in the source
[12] = as §1, with “WLS-052” for “Z-024”, “human” for “pig”, “ERS12561747” for “ERS12561823”; details: 2 µM
[13] = as §1, with “Z-005” for “Z-024”, “to” for “to pig gut”, “ERS12561805” for “ERS12561823”; details: 2 µM
[14] = as §1, with “WLS-090” for “Z-024”, “human” for “pig”, “ERS12561753” for “ERS12561823”; details: 2 µM
[15] = human gut metagenome, 24 h, 2 µM; remark: listed apart in the source
[16] = human gut metagenome, 24 h, 2 µM; remark: listed apart in the source
[17] = as §1, with “Z-026” for “Z-024”, “to” for “to pig gut”, “ERS12561825” for “ERS12561823”; details: 2 µM
[18] = human gut metagenome, 24 h, 2 µM; remark: listed apart in the source
[19] = human gut metagenome, 24 h, 2 µM; remark: listed apart in the source
[20] = human gut metagenome, 24 h, 2 µM; remark: listed apart in the source
Also: call rule not given here.

Row | Structure (SMILES) | Bacterial Biotransformation [1] | Bacterial Biotransformation [2] | Bacterial Biotransformation [3] | Bacterial Biotransformation [4] | Bacterial Biotransformation [5] | Bacterial Biotransformation [6] | Bacterial Biotransformation [7] | Bacterial Biotransformation [8] | Bacterial Biotransformation [9] | Bacterial Biotransformation [10] | Bacterial Biotransformation [11] | Bacterial Biotransformation [12] | Bacterial Biotransformation [13] | Bacterial Biotransformation [14] | Bacterial Biotransformation [15] | Bacterial Biotransformation [16] | Bacterial Biotransformation [17] | Bacterial Biotransformation [18] | Bacterial Biotransformation [19] | Bacterial Biotransformation [20]
1 | COc1cc(NC(C)CCCN)c2ncccc2c1.O=P(O)(O)O.O=P(O)(O)O (stereo not given) [PRIMAQUINE PHOSPHATE] | Compound NOT metabolized | Compound NOT metabolized | Compound NOT metabolized | Compound NOT metabolized | Compound NOT metabolized | Compound NOT metabolized | Compound NOT metabolized | Compound metabolized | Compound metabolized | Compound NOT metabolized | Compound NOT metabolized | Compound NOT metabolized | Compound NOT metabolized | Compound metabolized | Compound NOT metabolized | Compound metabolized | Compound NOT metabolized | Compound NOT metabolized | Compound NOT metabolized | Compound metabolized
2 | O=P1(N(CCCl)CCCl)NCCCO1 (stereo not given) [CYCLOPHOSPHAMIDE ANHYDROUS] | Compound NOT metabolized | Compound NOT metabolized | Compound NOT metabolized | Compound NOT metabolized | Compound NOT metabolized | Compound NOT metabolized | Compound NOT metabolized | Compound NOT metabolized | Compound NOT metabolized | Compound NOT metabolized | Compound metabolized | Compound NOT metabolized | Compound NOT metabolized | Compound metabolized | Compound metabolized | Compound NOT metabolized | Compound NOT metabolized | Compound NOT metabolized | Compound NOT metabolized | Compound metabolized
3 | CN(C)CCOC(C)(c1ccccc1)c1ccccn1.O=C(O)CCC(=O)O (stereo not given) [DOXYLAMINE SUCCINATE] | Compound NOT metabolized | Compound NOT metabolized | Compound NOT metabolized | Compound NOT metabolized | Compound NOT metabolized | Compound NOT metabolized | Compound NOT metabolized | Compound NOT metabolized | Compound NOT metabolized | Compound NOT metabolized | Compound NOT metabolized | Compound NOT metabolized | Compound NOT metabolized | Compound NOT metabolized | Compound NOT metabolized | Compound NOT metabolized | Compound NOT metabolized | Compound NOT metabolized | Compound NOT metabolized | Compound NOT metabolized
4 | CN1CCN2c3ccccc3Cc3ccccc3C2C1 (stereo not given) [MIANSERIN] | Compound metabolized | Compound metabolized | Compound metabolized | Compound NOT metabolized | Compound NOT metabolized | Compound NOT metabolized | Compound NOT metabolized | Compound NOT metabolized | Compound metabolized | Compound metabolized | Compound NOT metabolized | Compound NOT metabolized | Compound NOT metabolized | Compound metabolized | Compound metabolized | Compound NOT metabolized | Compound NOT metabolized | Compound NOT metabolized | Compound NOT metabolized | Compound NOT metabolized
